The values that follow come from PMC7932029 (Journal of natural products, 2020).

Series [1] deals with T1, μOR (Homo sapiens, UniProt P35372). The series can be described thus: PDSP primary radioligand displacement screen, μOR. The format is binding. Conditions: 10 μM. Background: Displacement assays read how much labelled ligand stays bound in the presence of the test substance.
For a further series, the target named is FLAG-mouse δOR (Mus musculus, UniProt P32300). The series can be described thus: GloSensor cAMP inhibition assay, δOR. The format is cell-based. Conditions: efficacy normalized to positive control Leu-Enk.
Chain of FLAG-mouse δOR (P32300 whole entry): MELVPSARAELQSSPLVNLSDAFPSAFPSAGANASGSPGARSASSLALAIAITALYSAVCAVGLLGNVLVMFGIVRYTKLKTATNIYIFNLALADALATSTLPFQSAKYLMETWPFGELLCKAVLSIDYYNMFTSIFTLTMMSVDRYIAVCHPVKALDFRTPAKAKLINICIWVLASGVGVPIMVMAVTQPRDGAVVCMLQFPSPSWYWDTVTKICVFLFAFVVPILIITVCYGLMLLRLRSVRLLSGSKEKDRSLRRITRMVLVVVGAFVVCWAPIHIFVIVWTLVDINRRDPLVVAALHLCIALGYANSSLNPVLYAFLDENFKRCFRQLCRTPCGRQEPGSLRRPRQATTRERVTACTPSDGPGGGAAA
The next series addresses HA-mouse μOR (Mus musculus, UniProt P42866). The series can be described thus: GloSensor cAMP inhibition assay, μOR. The format is cell-based. Conditions: efficacy normalized to positive control DAMGO.
In series [2] the target is T2, κOR (Homo sapiens, UniProt P41145). The format is cell-based.
T2 sequence (P41145 whole entry): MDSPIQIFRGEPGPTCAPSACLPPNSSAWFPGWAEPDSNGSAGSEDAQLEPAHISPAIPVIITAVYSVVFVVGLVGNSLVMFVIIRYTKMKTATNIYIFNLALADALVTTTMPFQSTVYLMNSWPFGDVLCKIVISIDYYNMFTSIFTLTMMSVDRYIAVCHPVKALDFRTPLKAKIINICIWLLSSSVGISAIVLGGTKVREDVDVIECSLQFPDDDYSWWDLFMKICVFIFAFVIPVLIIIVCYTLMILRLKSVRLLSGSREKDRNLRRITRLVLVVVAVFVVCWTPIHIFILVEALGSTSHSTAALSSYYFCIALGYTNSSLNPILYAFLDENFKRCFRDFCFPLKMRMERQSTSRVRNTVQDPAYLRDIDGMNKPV
The subject of series [3] is C57BL/6 mice. The series can be described thus: Hot plate thermal nociception assay. The format is in vivo, mouse.
The test system of series [4] is C57BL/6 mice. The series can be described thus: Tail flick thermal nociception assay. The class given is in vivo, mouse.
The next series concerns the target FLAG-mouse κOR (Mus musculus, UniProt P33534). The class given is cell-based.
Series [5] concerns the target T1, μOR. The series can be described thus: PathHunter β-arrestin 2 recruitment assay, μOR. (In general: Recruitment of arrestin is a read-out of receptor activation apart from second messengers.)
The target of series [6] is T2, κOR. The class given is binding.
The next series concerns the target human δOR (Homo sapiens, UniProt P41143). The series can be described thus: PathHunter β-arrestin 2 recruitment assay, δOR. The following applies: highest concentration tested, in words.
A further series deals with Wistar rats. The following applies: p.o., cited from earlier work.
Series [7] can be described thus: Partition coefficients of akuamma alkaloids in CCS solvent systems. The class given is physicochemical. The following applies: for Kacid: 10 mM HCl; for Kbase: 10 mM TEA.
Series [8] concerns the target T2, κOR. The series can be described thus: PDSP secondary binding assay, κOR.
Setting [9] is: 5 mg/kg p.o., any of the timepoints tested.

Structures can show the parent of a compound that is named as a salt.

Chain of HA-mouse μOR (P42866 whole entry): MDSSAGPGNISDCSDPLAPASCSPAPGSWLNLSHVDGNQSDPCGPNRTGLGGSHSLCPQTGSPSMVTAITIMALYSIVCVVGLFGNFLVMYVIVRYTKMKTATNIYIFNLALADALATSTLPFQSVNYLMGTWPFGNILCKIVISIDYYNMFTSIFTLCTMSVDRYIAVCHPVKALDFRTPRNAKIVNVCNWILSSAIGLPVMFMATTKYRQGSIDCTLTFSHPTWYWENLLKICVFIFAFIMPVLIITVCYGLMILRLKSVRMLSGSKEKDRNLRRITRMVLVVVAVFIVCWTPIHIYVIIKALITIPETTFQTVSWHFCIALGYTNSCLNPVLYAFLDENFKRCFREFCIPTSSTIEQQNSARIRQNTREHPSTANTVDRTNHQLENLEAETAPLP
T1 sequence (P35372 whole entry): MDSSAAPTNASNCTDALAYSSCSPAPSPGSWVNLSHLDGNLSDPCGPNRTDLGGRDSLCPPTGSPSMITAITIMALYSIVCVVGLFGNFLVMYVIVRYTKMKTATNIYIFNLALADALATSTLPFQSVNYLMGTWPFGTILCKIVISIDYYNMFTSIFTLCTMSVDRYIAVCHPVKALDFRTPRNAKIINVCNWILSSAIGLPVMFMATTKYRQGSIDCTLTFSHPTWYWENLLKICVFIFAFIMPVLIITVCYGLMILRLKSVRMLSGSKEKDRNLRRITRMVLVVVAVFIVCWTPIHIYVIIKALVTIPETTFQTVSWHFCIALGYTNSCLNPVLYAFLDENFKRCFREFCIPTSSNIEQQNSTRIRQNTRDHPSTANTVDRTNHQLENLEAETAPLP
Chain of FLAG-mouse κOR (P33534 whole entry): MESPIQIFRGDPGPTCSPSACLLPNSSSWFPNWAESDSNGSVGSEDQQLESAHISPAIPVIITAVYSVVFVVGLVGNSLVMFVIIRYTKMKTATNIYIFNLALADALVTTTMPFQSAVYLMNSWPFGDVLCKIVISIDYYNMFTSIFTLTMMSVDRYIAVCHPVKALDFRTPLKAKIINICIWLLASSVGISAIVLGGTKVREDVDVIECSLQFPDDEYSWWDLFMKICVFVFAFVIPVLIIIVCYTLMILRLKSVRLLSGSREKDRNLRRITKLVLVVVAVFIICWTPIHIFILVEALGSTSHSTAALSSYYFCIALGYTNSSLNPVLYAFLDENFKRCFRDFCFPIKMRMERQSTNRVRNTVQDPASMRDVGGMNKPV
Chain of human δOR (P41143 whole entry): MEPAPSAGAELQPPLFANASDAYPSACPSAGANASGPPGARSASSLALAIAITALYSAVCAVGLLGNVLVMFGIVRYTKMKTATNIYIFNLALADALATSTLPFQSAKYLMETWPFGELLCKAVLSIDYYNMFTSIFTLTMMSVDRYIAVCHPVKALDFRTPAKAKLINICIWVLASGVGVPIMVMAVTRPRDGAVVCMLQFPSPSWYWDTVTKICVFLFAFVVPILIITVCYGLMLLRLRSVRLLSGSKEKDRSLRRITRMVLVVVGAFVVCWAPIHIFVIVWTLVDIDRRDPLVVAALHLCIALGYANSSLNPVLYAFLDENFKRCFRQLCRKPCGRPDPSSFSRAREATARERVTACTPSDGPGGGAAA

`C/C=C1/CN2CC[C@@]34c5cc(O)ccc5N(C)[C@]35OC[C@@]4(C(=O)OC)[C@H]1C[C@H]25` [Compound 1, akuammine]: the “displacement of [3H]-DAMGO” value on μOR [1] is given as “displaced”. Besides, the “cAMP α” value was 50 ± 35 on FLAG-mouse δOR and 62 ± 6 at HA-mouse μOR. Also, the “β-arrestin 2 α” value at κOR [2] came out at 35 ± 6. The antinociception entry with C57BL/6 mice [3] (3 mg/kg s.c., 110 minutes) was “minimal yet statistically significant antinociception”; in the series with C57BL/6 mice [3] (30 mg/kg s.c., 60 minutes) it was “minimal yet statistically significant antinociception”; in the series on C57BL/6 mice [3] (60 mg/kg s.c., 30 minutes) it was “minimal yet statistically significant antinociception”; with C57BL/6 mice [3] (oral dosing, data not shown), “no antinociception was measurable”; in the series with C57BL/6 mice [4] (3 mg/kg s.c., 110 minutes) it was “minimal yet statistically significant antinociception”; in the series with C57BL/6 mice [4] (60 mg/kg s.c., 30 minutes), “minimal yet statistically significant antinociception”. Also, the antinociception result with C57BL/6 mice [4] (oral dosing, data not shown) is “no antinociception was measurable”. Also, the cAMP inhibition result on FLAG-mouse κOR is given as “did not inhibit cAMP production”.

As to `C/C=C1/CN2[C@H]3Cc4c([nH]c5ccccc45)[C@@H]2C[C@@H]1[C@]3(CO)C(=O)OC` [Compound 2, akuammidine], the “β-arrestin 2 recruitment” value at μOR [5] (highest concentration tested, in words) was “minimal recruitment”. The “Binding pKi” value at κOR [6] is −4.8 ± 0.1 (3). The antinociception entry in the series on C57BL/6 mice [3] (3 mg/kg s.c., 110 minutes) is given as “minimal, yet statistically significant, antinociception”; in the series on C57BL/6 mice [3] (oral dosing, data not shown), “no antinociception was measurable”; in the series on C57BL/6 mice [4] (10 mg/kg s.c., 50 minutes) it was “minimal yet statistically significant antinociception”; with C57BL/6 mice [4] (30 mg/kg s.c., 30 minutes), “minimal yet statistically significant antinociception”; in the series with C57BL/6 mice [4] (oral dosing, data not shown) it was “no antinociception was measurable”. The β-arrestin recruitment result at human δOR is listed as “minimal recruitment”.

With `C/C=C1/CN2CC[C@@]34c5ccccc5N(C)[C@]35OC[C@@]4(C(=O)OC)[C@H]1C[C@H]25` [Compound 3, pseudo-akuammigine], on μOR [1], the “displacement of [3H]-DAMGO” value is “displaced”. The antinociception result with Wistar rats (Wistar rats, 5 mg/kg) was “antinociceptive”; in the series with C57BL/6 mice [3] (setting [9]), “did not produce antinociception”; in the series on C57BL/6 mice [3] (5 mg/kg s.c., 30 minutes) it was “minimal yet statistically significant antinociception”; with C57BL/6 mice [3] (10 mg/kg s.c., 30 minutes) it was “failed to produce antinociception”; in the series with C57BL/6 mice [4] (setting [9]) it was “did not produce antinociception”; with C57BL/6 mice [4] (5 mg/kg s.c., 30 minutes), “minimal yet statistically significant antinociception”. For the same compound, the antinociception entry in the series with C57BL/6 mice [4] (5 mg/kg s.c., 60 minutes) is recorded as “minimal yet statistically significant antinociception”; with C57BL/6 mice [4] (10 mg/kg s.c., 30 minutes) it was “failed to produce antinociception”. In addition, the “time of peak antinociceptive activity” value with Wistar rats (rats) was 180 min. Moreover, the Kacid in series [7] (1:1:1:1 Hex/EtOAc/MeOH/H2O) is listed as <<0.01; in series [7] (1:1 EtOAc/H2O), 0.10; in [7] (3:1.5:4 MTBE/CH3CN/H2O), 0.25; in series [7] (3:7:3:7 Hex/EtOAc/MeOH/H2O) it was <<0.01. Moreover, the Kbase in [7] (1:1:1:1 Hex/EtOAc/MeOH/H2O) turned out to be 2.71; in series [7] (1:1 EtOAc/H2O), 51.9; in series [7] (2:2:3 MTBE/CH3CN/H2O), 87.0; in series [7] (3:1.5:4 MTBE/CH3CN/H2O), 30.9; in series [7] (3:7:3:7 Hex/EtOAc/MeOH/H2O), 32.3. The “cAMP α” value was 82 ± 7 on HA-mouse μOR and 69 ± 8 on FLAG-mouse κOR. Further, the “β-arrestin 2 α” value at κOR [2] was determined as 20 ± 20.

As to `C/C=C1/CN2CC[C@]34C(=C(C(=O)OC)[C@H]1C[C@H]23)Nc1ccccc14` [Compound 4, akuammicine], the “Binding pKi” value on κOR [6] is reported as −7.1 ± 0.1 (3). Moreover, the “displacement of [3H]-DAMGO” value at μOR [1] was “displaced”. Further, the Ki – broadly, a dissociation constant, usually derived from enzyme kinetics or from competition with a known ligand – on κOR [8] stood at 170 nM. Also, the Kacid is given as <<0.01 in series [7] (1:1:1:1 Hex/EtOAc/MeOH/H2O); 0.02 in series [7] (1:1 EtOAc/H2O); 0.61 in [7] (2:2:3 MTBE/CH3CN/H2O); 0.14 in series [7] (3:1.5:4 MTBE/CH3CN/H2O); <<0.01 in [7] (3:7:3:7 Hex/EtOAc/MeOH/H2O). The Kbase in series [7] (1:1:1:1 Hex/EtOAc/MeOH/H2O) turned out to be 1.63; in series [7] (1:1 EtOAc/H2O), 222; in series [7] (2:2:3 MTBE/CH3CN/H2O) it was 27.7; in series [7] (3:1.5:4 MTBE/CH3CN/H2O), 64.1; in series [7] (3:7:3:7 Hex/EtOAc/MeOH/H2O), 28.9.

Take `C/C=C1/CN2CC[C@]34C(=Nc5ccccc53)[C@@H]2C[C@@H]1[C@@]4(COC(C)=O)C(=O)OC` [Compound 5, akuammiline]: at κOR [6], the “Binding pKi” value is recorded as −6.0 ± 0.1 (3). On μOR [1], the “displacement of [3H]-DAMGO” value was “significantly less displacement”. Besides, the Ki at κOR [8] is 400 nM. Further, the Kacid was <<0.01 in series [7] (1:1:1:1 Hex/EtOAc/MeOH/H2O); 0.03 in series [7] (1:1 EtOAc/H2O); 0.27 in [7] (2:2:3 MTBE/CH3CN/H2O); 0.05 in series [7] (3:1.5:4 MTBE/CH3CN/H2O); <<0.01 in series [7] (3:7:3:7 Hex/EtOAc/MeOH/H2O). Further, the Kbase in series [7] (1:1:1:1 Hex/EtOAc/MeOH/H2O) is reported as 0.23; in series [7] (1:1 EtOAc/H2O) it was 28.2; in series [7] (2:2:3 MTBE/CH3CN/H2O), 5.61; in series [7] (3:1.5:4 MTBE/CH3CN/H2O), 6.82; in [7] (3:7:3:7 Hex/EtOAc/MeOH/H2O), 2.53.

For the compound `C/C=C1/CN2[C@@H]3C[C@@]45c6ccccc6N[C@]4(O3)[C@@H]2C[C@@H]1[C@@]5(COC(C)=O)C(=O)OC` [Compound 6, picraline], the “displacement of [3H]-DAMGO” value on μOR [1] was “significantly less displacement”. Also, the Kacid in series [7] (1:1:1:1 Hex/EtOAc/MeOH/H2O) is <<0.01; in series [7] (1:1 EtOAc/H2O) it was 0.03; in series [7] (2:2:3 MTBE/CH3CN/H2O), 0.56; in series [7] (3:1.5:4 MTBE/CH3CN/H2O), 0.10; in series [7] (3:7:3:7 Hex/EtOAc/MeOH/H2O), 0.01. For the same compound, the Kbase in series [7] (1:1:1:1 Hex/EtOAc/MeOH/H2O) is recorded as 0.82; in series [7] (1:1 EtOAc/H2O) it was 16.09; in series [7] (2:2:3 MTBE/CH3CN/H2O) it was 11.4; in [7] (3:1.5:4 MTBE/CH3CN/H2O), 17.4; in series [7] (3:7:3:7 Hex/EtOAc/MeOH/H2O), 7.29.

As to `C[C@@H](NC(=O)[C@@H](N)Cc1ccc(O)cc1)C(=O)NCC(=O)N(C)[C@@H](Cc1ccccc1)C(=O)NCCO` [DAMGO, (2S)-2-[[2-[[(2R)-2-[[(2S)-2-Amino-3-(4-hydroxyphenyl)propanoyl]amino]propanoyl]amino]acetyl]-methylamino]-N-(2-hydroxyethyl)-3-phenylpropanamide, reference compound], the “β-arrestin 2 α” value at μOR [5] (efficacy normalized to positive control DAMGO) came to 100. At HA-mouse μOR, the “cAMP α” value is listed as 100.

Regarding `CN1CC[C@]23c4c5ccc(O)c4O[C@H]2[C@@H](O)C=C[C@H]3[C@H]1C5` [morphine, morphine sulfate pentahydrate, reference compound], the antinociception entry is “significant antinociception” with C57BL/6 mice [3] (6 mg/kg s.c., 30 min) and “significant antinociception” in the series on C57BL/6 mice [4] (6 mg/kg s.c., 30 min).
